Results on one compound are retold here after patent US10766857B2, “Compound having BLT inhibitory activity and composition, for preventing or treating inflammatory diseases, comprising same as active ingredient” (DONGGUK UNIVERSITY INDUSTRY-ACADEMIC COOPERATION FOUNDATION, priority 2015, dated 2020).

For one assay, the target named is T1, BLT2 (Homo sapiens, UniProt Q9NPC1).
T1 construct: HA; expressed in transfected cells
T1 sequence (Q9NPC1 with tags, fused parts or gaps): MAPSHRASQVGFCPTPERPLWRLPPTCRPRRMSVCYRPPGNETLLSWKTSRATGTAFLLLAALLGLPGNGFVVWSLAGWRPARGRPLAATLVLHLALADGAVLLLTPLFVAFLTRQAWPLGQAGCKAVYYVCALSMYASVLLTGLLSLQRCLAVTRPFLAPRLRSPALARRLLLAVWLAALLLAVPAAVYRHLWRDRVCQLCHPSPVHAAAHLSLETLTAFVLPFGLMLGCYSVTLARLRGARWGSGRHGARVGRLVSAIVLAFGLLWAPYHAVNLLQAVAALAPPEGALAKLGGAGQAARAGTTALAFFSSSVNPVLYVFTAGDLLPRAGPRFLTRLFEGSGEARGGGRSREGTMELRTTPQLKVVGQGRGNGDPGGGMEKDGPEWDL
As to the kind of experiment: LTB4-induced chemotactic motility, Transwell, CHO-BLT2 cells. The conditions noted are these: LTB4 300 nM. The class given is cell-based. As for the experimental part: (§1) Chemotactic motility was analyzed using a Transwell chamber including a polycarbonate filter (8-μm pore size, Corning Costar) with a 6.5-mm diameter. Specifically, the lower surface of the filter was coated with 10 μg/mL fibronectin in a serum-free RPMI 1640 medium at 37° C. for 1 hour. The experiment was performed by placing the filter dried and coated with RPMI 1640 media containing various amounts of LTB4 in the lower wells of the Transwell chamber, and loading CHO cells stably expressing BLT1 and BLT2 into the upper wells containing serum-free RPMI 1640 media finally at 2×10^4 cells/100 μL. To evaluate the effect of inhibitors, the cells were pre-treated with each inhibitor for 30 minutes before dispensing. After the cells were cultured at 37° C. in 5% CO2 for 3 hours, the filters were fixed with methanol for 3 minutes, and stained with hematoxylin and eosin for 10 minutes. In the experiment, the cells were BLT2-expressing cells (CHO-BLT2 cells) and BLT1-expressing cells (CHO-BLT1 cells), and LY255283 and U75302 were used as positive controls for each type of the cells, and BLT2 ligand LTB4, (300 nM), BLT1 ligand LTB4 (10 nM), and lysophosphatidic acid (LPA; 100 nM) were used as comparative controls. The chemotactic motility was quantitatively analyzed by counting the cells on the lower side of the filter under an optical microscope (magnification, 200×). For each analysis, 6 fields were subjected to counting, each sample was analyzed twice, and the analysis was repeated three times.

A further assay concerns MDA-MB-435 cells. As to the kind of experiment: IL-8 expression (RT-PCR). Format: cell-based. As for the experimental part: (§2) The breast cancer cells such as the MDA-MB-231 cells were obtained from Korean Cell Line Bank (Seoul, Korea), and the MDA-MB-435 cells were provided by J. H. Lee (Asan Medical Center, Seoul, Korea). These cells were cultured in an RPMI 1640 medium (Invitrogen) containing 10% FBS (Life Technologies, Inc.), 1% penicillin (50 units/mL), and an antibiotic antimycotic solution (Life Technologies, Inc.) at 37° C. under a 5% CO2 condition.
(§3) To confirm the IL-8 expression according to the treatment of the compound of the present invention, total RNA was isolated from cells using Easy Blue (Intron, Sungnam, Korea), and quantified by absorbance at 260 nm. Complementary DNA (cDNA) was synthesized with the RNA (1.25 μg) through reverse transcription using a polymerase chain reaction (PCR) technique. An expression level was determined using primers specifically binding to IL-8 and glyceraldehyde-3-phosphate dehydrogenase (GAPDH).

The test system of a further assay is MDA-MB-231 cells. As to the kind of experiment: IL-8 expression (RT-PCR). The class given is cell-based. As for the experimental part: as §2, §3
The target in the next assay is T2, BLT1 (Homo sapiens, UniProt Q15722).
T2 construct: expressed in transfected cells; host or cells: CHO cells stably expressing BLT1 (CHO-BLT1)
As to the kind of experiment: LTB4-induced chemotactic motility, Transwell, CHO-BLT1 cells. The conditions noted are these: 10 μM pre-treatment, LTB4 10 nM. The class given is cell-based. How it is done: as §1

Assay [1] concerns severe asthma-induced mice. Nature of the assay: OVA-induced asthma mice: AHR and IL-4. Format: in vivo. The following applies: pre-treated at 10 μM (so in the source). An excerpt: Mast cells play a pivotal role in the initial reaction to asthma, and when an allergen enters the body from the outside through an airway, the mast cells are activated, thereby secreting various cytokines (interleukin-4 and interleukin-13). Due to the cytokines, the influx of inflammatory cells, the generation of mucus and the airway contraction occur. The inventors used 7-week-old (18 to 20 g) female BALB/c mice provided by Orient (Seoungnam, Korea) for the experiment to confirm the antiasthma effect, and then the asthma was induced in the mice. […] On the 24th day of the initial sensitization, airway hyperresponsiveness (AHR) was detected, and on the 25th day, the mice were dissected to observe asthma phenotypes, for example, inflammatory cytokine IL-4 expression and the influx of inflammatory cells (neutrophils). […] On the 23rd day of the initial sensitization, AHR was detected, and on the 24th day, the mice were dissected to observe a severe asthma phenotype, for example, the influx of the inflammatory cells (neutrophils). […] The AHR was analyzed using an enhanced pause as the indicator of the asthma phenomenon. Bronchoalveolar lavage fluid cell counts were quantified by counting cells under an optical microscope (magnification, 200×). In each analysis, 4 fields were subjected to counting, each sample was analyzed twice, and the analysis was repeated three times.

T2 sequence (Q15722 whole entry, species assumed): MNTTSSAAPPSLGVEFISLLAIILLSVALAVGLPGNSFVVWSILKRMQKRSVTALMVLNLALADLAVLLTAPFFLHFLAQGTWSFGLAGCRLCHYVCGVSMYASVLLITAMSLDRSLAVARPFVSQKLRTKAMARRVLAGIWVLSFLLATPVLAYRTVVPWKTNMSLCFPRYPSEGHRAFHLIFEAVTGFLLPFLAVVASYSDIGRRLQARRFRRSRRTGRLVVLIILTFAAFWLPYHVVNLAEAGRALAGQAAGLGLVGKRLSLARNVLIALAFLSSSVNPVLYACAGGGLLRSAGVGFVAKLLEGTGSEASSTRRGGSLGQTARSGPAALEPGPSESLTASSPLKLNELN

For the compound `CCCCC(=O)N(CC#Cc1ccc(C(=O)N2CCN(C(C)C)CC2)cc1)c1ccccc1` [LMT-696, N-(3-(4-(4-isopropylpiperazine-1-carbonyl)phenyl)prop-2-ynyl)-N-phenylpentaneamide], the inhibition at 10 µM on BLT2 (10 μM pre-treatment, read-out: chemotactic motility inhibited compared with LTB4 (DMSO+)) worked out at 70.3%. The concentration for half-maximal inhibition (IC50) (usually the concentration that gives 50% inhibition) at BLT2 (serum-free, read-out: IC50 of chemotactic motility inhibition) came to 2000 nM. For the same compound, the IL-8 expression level entry with MDA-MB-435 cells and with MDA-MB-231 cells was “significantly inhibited” throughout. Further, the “inhibitory effect on chemotactic motility” value on BLT1 is given as “did not exhibit the inhibitory effect”. In assay [1] (airway constrictor 50 mg/ml), the AHR reduced amounted to 70%. Moreover, the “generation of IL-4 reduced” value in assay [1] (cells isolated from the abdominal cavity of the mice) is on record as 70%.
